Data published in PubChem BioAssay (NCI).
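A five-concentration, 48-hour dose response in 96-well plates underlies each endpoint, interpolated linearly between surrounding concentrations. GI50 marks 50% less growth. TGI marks complete inhibition of growth.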

Assays:
Experiment in all cases: NCI tumour cell line growth inhibition, 48 h
786-0 renal = test system: 786-0 renal
A498 renal = test system: A498 renal
A549 NSCLC = test system: A549 NSCLC
ACHN renal = test system: ACHN renal
BT-549 breast = test system: BT-549 breast
CAKI-1 renal = test system: CAKI-1 renal
CCRF-CEM leukemia = test system: CCRF-CEM leukemia
COLO 205 colon = test system: COLO 205 colon
DU-145 prostate = test system: DU-145 prostate
EKVX NSCLC = test system: EKVX NSCLC
HCC-2998 colon = test system: HCC-2998 colon
HCT-116 colon = test system: HCT-116 colon
HCT-15 colon = test system: HCT-15 colon
HL-60(TB) leukemia = test system: HL-60(TB) leukemia
HOP-62 NSCLC = test system: HOP-62 NSCLC
HOP-92 NSCLC = test system: HOP-92 NSCLC
HS 578T breast = test system: HS 578T breast
HT29 colon = test system: HT29 colon
IGROV1 ovarian = test system: IGROV1 ovarian
K-562 leukemia = test system: K-562 leukemia
KM12 colon = test system: KM12 colon
LOX IMVI melanoma = test system: LOX IMVI melanoma
M14 melanoma = test system: M14 melanoma
MALME-3M melanoma = test system: MALME-3M melanoma
MCF7 breast = test system: MCF7 breast
MDA-MB-231 breast = test system: MDA-MB-231 breast
MDA-MB-435 = test system: MDA-MB-435
MDA-MB-468 breast = test system: MDA-MB-468 breast
MOLT-4 leukemia = test system: MOLT-4 leukemia
NCI-H226 lung = test system: NCI-H226 lung
NCI-H23 lung = test system: NCI-H23 lung
NCI-H460 lung = test system: NCI-H460 lung
NCI-H522 lung = test system: NCI-H522 lung
NCI/ADR-RES ovarian = test system: NCI/ADR-RES ovarian
OVCAR-3 ovarian = test system: OVCAR-3 ovarian
OVCAR-4 ovarian = test system: OVCAR-4 ovarian
OVCAR-5 ovarian = test system: OVCAR-5 ovarian
OVCAR-8 ovarian = test system: OVCAR-8 ovarian
PC-3 prostate = test system: PC-3 prostate
RPMI-8226 leukemia = test system: RPMI-8226 leukemia
RXF 393 renal = test system: RXF 393 renal
SF-268 CNS = test system: SF-268 CNS
SF-295 CNS = test system: SF-295 CNS
SF-539 CNS = test system: SF-539 CNS
SK-MEL-2 melanoma = test system: SK-MEL-2 melanoma
SK-MEL-28 melanoma = test system: SK-MEL-28 melanoma
SK-MEL-5 melanoma = test system: SK-MEL-5 melanoma
SK-OV-3 ovarian = test system: SK-OV-3 ovarian
SN12C renal = test system: SN12C renal
SNB-19 CNS = test system: SNB-19 CNS
SNB-75 CNS = test system: SNB-75 CNS
SR leukemia = test system: SR leukemia
SW-620 colon = test system: SW-620 colon
T-47D breast = test system: T-47D breast
TK-10 renal = test system: TK-10 renal
U251 CNS = test system: U251 CNS
UACC-257 melanoma = test system: UACC-257 melanoma
UACC-62 melanoma = test system: UACC-62 melanoma
UO-31 renal = test system: UO-31 renal

O=C(c1ccc(O)cc1)C1[C@H](c2ccc(Cl)cc2)[C@@H](c2ccccc2)NC12C(=O)Nc1ccc(Br)cc12 (stereo partly drawn)
GI50 (786-0 renal): 1.64 µM
TGI (786-0 renal): 3 µM
GI50 (A498 renal): 13.8 µM
TGI (A498 renal): 27 µM
GI50 (A549 NSCLC): 11.8 µM
TGI (A549 NSCLC): 25.9 µM
GI50 (ACHN renal): 12.6 µM
TGI (ACHN renal): 25.2 µM
GI50 (BT-549 breast): 16.3 µM
TGI (BT-549 breast): 30 µM
GI50 (CAKI-1 renal): 10.8 µM
TGI (CAKI-1 renal): 23.4 µM
GI50 (CCRF-CEM leukemia): 18.9 µM
TGI (CCRF-CEM leukemia): 45 µM
GI50 (COLO 205 colon): 15.8 µM
TGI (COLO 205 colon): 30 µM
GI50 (DU-145 prostate): 16.6 µM
TGI (DU-145 prostate): 31.6 µM
GI50 (EKVX NSCLC): 11 µM
TGI (EKVX NSCLC): 23.2 µM
GI50 (HCC-2998 colon): 14.1 µM
TGI (HCC-2998 colon): 27.3 µM
GI50 (HCT-116 colon): 12.6 µM
TGI (HCT-116 colon): 25.1 µM
GI50 (HCT-15 colon): 13.6 µM
TGI (HCT-15 colon): 26.8 µM
GI50 (HL-60(TB) leukemia): 20.4 µM
TGI (HL-60(TB) leukemia): 46.5 µM
GI50 (HOP-62 NSCLC): 13.9 µM
TGI (HOP-62 NSCLC): 27.5 µM
GI50 (HOP-92 NSCLC): 14.2 µM
TGI (HOP-92 NSCLC): 28.6 µM
GI50 (HS 578T breast): 15.2 µM
TGI (HS 578T breast): 38.2 µM
GI50 (HT29 colon): 14 µM
TGI (HT29 colon): 27.9 µM
GI50 (IGROV1 ovarian): 12.1 µM
TGI (IGROV1 ovarian): 24.8 µM
GI50 (K-562 leukemia): 14.3 µM
TGI (K-562 leukemia): 43.5 µM
GI50 (KM12 colon): 13.4 µM
TGI (KM12 colon): 29.5 µM
GI50 (LOX IMVI melanoma): 14 µM
TGI (LOX IMVI melanoma): 27 µM
GI50 (M14 melanoma): 12.8 µM
TGI (M14 melanoma): 25.5 µM
GI50 (MALME-3M melanoma): 15.1 µM
TGI (MALME-3M melanoma): 28.8 µM
GI50 (MCF7 breast): 12.2 µM
TGI (MCF7 breast): 25.7 µM
GI50 (MDA-MB-231 breast): 13.1 µM
TGI (MDA-MB-231 breast): 26 µM
GI50 (MDA-MB-435): 16.2 µM
TGI (MDA-MB-435): 31.9 µM
GI50 (MDA-MB-468 breast): 8.82 µM
TGI (MDA-MB-468 breast): 21.3 µM
GI50 (MOLT-4 leukemia): 11.6 µM
TGI (MOLT-4 leukemia): 32.2 µM
GI50 (NCI-H226 lung): 13.6 µM
TGI (NCI-H226 lung): 28.9 µM
GI50 (NCI-H23 lung): 15.1 µM
TGI (NCI-H23 lung): 29.2 µM
GI50 (NCI-H460 lung): 14.7 µM
TGI (NCI-H460 lung): 28.8 µM
GI50 (NCI-H522 lung): 13.3 µM
TGI (NCI-H522 lung): 26.6 µM
GI50 (NCI/ADR-RES ovarian): 16.6 µM
TGI (NCI/ADR-RES ovarian): 31.5 µM
GI50 (OVCAR-3 ovarian): 13.8 µM
TGI (OVCAR-3 ovarian): 28 µM
GI50 (OVCAR-4 ovarian): 14.3 µM
TGI (OVCAR-4 ovarian): 28.1 µM
GI50 (OVCAR-5 ovarian): 13.7 µM
TGI (OVCAR-5 ovarian): 26.6 µM
GI50 (OVCAR-8 ovarian): 15.5 µM
TGI (OVCAR-8 ovarian): 30.7 µM
GI50 (PC-3 prostate): 12.3 µM
TGI (PC-3 prostate): 25.9 µM
GI50 (RPMI-8226 leukemia): 23.6 µM
TGI (RPMI-8226 leukemia): 69.2 µM
GI50 (RXF 393 renal): 13 µM
TGI (RXF 393 renal): 26.3 µM
GI50 (SF-268 CNS): 14.4 µM
TGI (SF-268 CNS): 31 µM
GI50 (SF-295 CNS): 12.4 µM
TGI (SF-295 CNS): 25 µM
GI50 (SF-539 CNS): 14.7 µM
TGI (SF-539 CNS): 28 µM
GI50 (SK-MEL-2 melanoma): 14.4 µM
TGI (SK-MEL-2 melanoma): 28.3 µM
GI50 (SK-MEL-28 melanoma): 16.3 µM
TGI (SK-MEL-28 melanoma): 30 µM
GI50 (SK-MEL-5 melanoma): 15.7 µM
TGI (SK-MEL-5 melanoma): 29.1 µM
GI50 (SK-OV-3 ovarian): 14.9 µM
TGI (SK-OV-3 ovarian): 28.3 µM
GI50 (SN12C renal): 14.7 µM
TGI (SN12C renal): 28.4 µM
GI50 (SNB-19 CNS): 14.6 µM
TGI (SNB-19 CNS): 27.7 µM
GI50 (SNB-75 CNS): 10.8 µM
TGI (SNB-75 CNS): 26.2 µM
GI50 (SR leukemia): 10.6 µM
TGI (SR leukemia): 26.2 µM
GI50 (SW-620 colon): 14.4 µM
TGI (SW-620 colon): 28.1 µM
GI50 (T-47D breast): 11.7 µM
TGI (T-47D breast): 24.1 µM
GI50 (TK-10 renal): 13.8 µM
TGI (TK-10 renal): 27 µM
GI50 (U251 CNS): 15 µM
TGI (U251 CNS): 29.6 µM
GI50 (UACC-257 melanoma): 14.8 µM
TGI (UACC-257 melanoma): 28.6 µM
GI50 (UACC-62 melanoma): 11.8 µM
TGI (UACC-62 melanoma): 24.1 µM
GI50 (UO-31 renal): 10.6 µM
TGI (UO-31 renal): 22.4 µM
